Non-standard residues stand in square brackets, D forms with d. Residues, ends and D or L forms follow the SMILES beside them. ξ: configuration not given here. *: point of attachment. DOTA = O=C(O)CN1CCN(CC(=O)O)CCN(CC(=O)*)CCN(CC(=O)O)CC1; Pip = O=C(O)[C@@H]1CCCCN1; ξN = NC(=O)CC(N)C(=O)O; Aib = CC(C)(N)C(=O)O; AEA = NCCOCC(=O)O
Key:
integrin αvβ3 = integrin αvβ3 (Homo sapiens, UniProt P05106+P06756); test: Target affinity test by surface plasmon resonance (SPR), integrin αvβ3; assay type: binding; conditions: for affinity constant (KD) to integrin αvβ3, in words: SPR; for Kd: SPR (Biacore T200), CM5 chip, 25° C., KD=Kd/Ka
Sequence of integrin αvβ3 (P06756 31-992 limits assumed): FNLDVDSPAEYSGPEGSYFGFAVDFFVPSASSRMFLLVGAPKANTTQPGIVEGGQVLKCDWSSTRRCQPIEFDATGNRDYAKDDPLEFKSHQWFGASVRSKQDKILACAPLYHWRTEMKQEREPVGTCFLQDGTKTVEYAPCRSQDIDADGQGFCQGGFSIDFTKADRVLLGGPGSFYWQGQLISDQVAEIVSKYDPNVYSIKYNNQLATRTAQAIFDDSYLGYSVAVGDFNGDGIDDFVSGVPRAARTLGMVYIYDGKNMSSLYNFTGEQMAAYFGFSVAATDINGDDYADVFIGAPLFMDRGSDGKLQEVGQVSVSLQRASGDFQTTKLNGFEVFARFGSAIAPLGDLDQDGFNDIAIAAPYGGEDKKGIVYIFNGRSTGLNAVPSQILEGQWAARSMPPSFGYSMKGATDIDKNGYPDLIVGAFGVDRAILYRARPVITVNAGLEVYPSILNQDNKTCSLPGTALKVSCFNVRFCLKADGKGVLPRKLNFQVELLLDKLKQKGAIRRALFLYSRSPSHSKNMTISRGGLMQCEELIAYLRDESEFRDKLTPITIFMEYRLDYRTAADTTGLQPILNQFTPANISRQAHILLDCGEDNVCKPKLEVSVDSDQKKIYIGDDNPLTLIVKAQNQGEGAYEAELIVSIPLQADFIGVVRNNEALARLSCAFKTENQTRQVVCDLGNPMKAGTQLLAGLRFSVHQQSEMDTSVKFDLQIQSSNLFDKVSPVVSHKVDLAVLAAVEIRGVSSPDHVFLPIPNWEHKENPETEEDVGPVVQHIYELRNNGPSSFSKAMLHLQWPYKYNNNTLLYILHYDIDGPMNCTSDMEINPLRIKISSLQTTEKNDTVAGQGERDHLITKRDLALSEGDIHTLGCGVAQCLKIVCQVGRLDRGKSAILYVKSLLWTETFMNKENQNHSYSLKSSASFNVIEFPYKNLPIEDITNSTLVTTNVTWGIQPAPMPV
Sequence of integrin αvβ3 (P05106 27-718 limits assumed): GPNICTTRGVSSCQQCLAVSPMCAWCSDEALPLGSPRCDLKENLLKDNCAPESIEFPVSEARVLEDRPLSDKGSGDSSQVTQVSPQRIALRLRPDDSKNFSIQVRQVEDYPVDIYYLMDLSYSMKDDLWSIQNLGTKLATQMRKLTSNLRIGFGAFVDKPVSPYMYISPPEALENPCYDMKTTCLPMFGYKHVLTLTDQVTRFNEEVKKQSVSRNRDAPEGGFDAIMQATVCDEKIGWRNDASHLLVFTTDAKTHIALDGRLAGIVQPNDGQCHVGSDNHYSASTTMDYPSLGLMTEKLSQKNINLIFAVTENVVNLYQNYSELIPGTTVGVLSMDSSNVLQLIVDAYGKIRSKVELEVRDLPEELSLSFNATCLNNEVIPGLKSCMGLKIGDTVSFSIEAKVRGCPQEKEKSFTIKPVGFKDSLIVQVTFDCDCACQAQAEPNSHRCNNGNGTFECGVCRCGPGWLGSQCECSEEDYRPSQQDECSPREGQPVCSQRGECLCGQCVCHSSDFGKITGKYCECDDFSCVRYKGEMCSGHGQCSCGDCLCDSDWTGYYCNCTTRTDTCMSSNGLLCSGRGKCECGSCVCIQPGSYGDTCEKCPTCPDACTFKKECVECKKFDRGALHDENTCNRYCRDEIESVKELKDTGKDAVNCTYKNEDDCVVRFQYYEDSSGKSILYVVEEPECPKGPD
Experimental: (§1) Surface plasmon resonance (SPR) technique was used to test the affinity of the compound in the examples to the target protein integrin α5β1. Specifically, the following operations were performed.
(§2) The affinity constants (KD) of the compounds to the target proteins integrin α5β1, αvβ3, and αvβ5 were calculated according to the formula of KD=Kd/Ka (the lower the value of KD, the higher the affinity of the compounds of the examples to the target protein integrin α5β1).

integrin α5β1 = integrin α5β1 (Homo sapiens, UniProt P05556+P08648); test: Target affinity test by surface plasmon resonance (SPR), integrin α5β1; assay type: binding; conditions: for Kd: SPR (Biacore T200), CM5 chip, 25° C., KD=Kd/Ka; for affinity constant (KD) to integrin α5β1, in words: SPR
Sequence of integrin α5β1 (P08648 42-995 limits assumed): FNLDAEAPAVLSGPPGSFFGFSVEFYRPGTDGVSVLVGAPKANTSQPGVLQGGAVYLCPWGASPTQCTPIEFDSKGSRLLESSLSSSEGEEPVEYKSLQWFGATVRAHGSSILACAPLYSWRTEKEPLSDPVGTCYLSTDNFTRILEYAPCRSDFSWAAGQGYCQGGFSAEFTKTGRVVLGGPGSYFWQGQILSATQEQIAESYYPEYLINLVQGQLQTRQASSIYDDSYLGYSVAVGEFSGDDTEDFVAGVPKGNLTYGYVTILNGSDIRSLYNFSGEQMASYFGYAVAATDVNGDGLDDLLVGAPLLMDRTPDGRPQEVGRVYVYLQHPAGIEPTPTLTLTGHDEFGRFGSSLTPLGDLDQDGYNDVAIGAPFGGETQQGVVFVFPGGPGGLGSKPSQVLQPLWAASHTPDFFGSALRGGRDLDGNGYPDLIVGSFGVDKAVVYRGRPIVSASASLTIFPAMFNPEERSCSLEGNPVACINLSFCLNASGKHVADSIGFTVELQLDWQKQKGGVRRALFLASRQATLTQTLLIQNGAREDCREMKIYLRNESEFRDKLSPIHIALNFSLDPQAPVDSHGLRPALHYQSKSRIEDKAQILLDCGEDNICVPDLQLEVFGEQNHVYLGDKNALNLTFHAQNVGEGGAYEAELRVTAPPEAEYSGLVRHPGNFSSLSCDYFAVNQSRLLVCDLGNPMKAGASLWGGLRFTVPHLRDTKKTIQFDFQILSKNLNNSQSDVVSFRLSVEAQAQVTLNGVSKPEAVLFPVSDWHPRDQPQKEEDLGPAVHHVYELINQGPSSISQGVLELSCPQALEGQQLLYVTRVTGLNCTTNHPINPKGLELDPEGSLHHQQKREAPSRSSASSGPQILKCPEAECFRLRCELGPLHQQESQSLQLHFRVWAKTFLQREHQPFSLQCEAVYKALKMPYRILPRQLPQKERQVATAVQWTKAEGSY
Sequence of integrin α5β1 (P05556 21-728 limits assumed): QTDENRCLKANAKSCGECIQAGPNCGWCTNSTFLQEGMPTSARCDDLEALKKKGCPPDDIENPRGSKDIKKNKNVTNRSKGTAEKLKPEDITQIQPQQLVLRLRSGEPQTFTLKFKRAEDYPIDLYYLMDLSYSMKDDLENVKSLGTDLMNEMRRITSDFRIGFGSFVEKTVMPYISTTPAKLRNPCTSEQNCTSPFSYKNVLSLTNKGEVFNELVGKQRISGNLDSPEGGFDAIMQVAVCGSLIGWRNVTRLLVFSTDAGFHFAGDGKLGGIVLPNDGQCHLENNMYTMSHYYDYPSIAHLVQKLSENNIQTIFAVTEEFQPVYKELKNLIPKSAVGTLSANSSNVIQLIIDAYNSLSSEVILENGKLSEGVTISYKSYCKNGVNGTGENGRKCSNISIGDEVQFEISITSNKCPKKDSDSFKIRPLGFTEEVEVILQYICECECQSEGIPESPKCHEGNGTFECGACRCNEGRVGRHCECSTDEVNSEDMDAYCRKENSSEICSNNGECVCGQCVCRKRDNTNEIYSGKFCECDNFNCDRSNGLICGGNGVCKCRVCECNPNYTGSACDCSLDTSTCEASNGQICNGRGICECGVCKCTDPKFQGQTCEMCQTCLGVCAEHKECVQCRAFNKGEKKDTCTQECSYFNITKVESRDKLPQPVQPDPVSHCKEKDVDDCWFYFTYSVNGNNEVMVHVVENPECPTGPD
Experimental: as §1, §2

Compound	affinity constant (KD) to integrin αvβ3, in words (integrin αvβ3)	Kd (integrin αvβ3)	Kd (integrin α5β1)	affinity constant (KD) to integrin α5β1, in words (integrin α5β1)
CC[C@H](C)[C@H](NC(=O)[C@@H](NC(=O)[C@H](CC(=O)O)NC(=O)[C@H](CC(N)=O)NC(=O)COCCNC(=O)CN1CCN(CC(=O)O)CCN(CC(=O)O)CCN(CC(=O)O)CC1)C(C)C)C(=O)N[C@@H](CC(N)=O)C(=O)O [TM13] ({DOTA-AEA}-NDVIN-OH)	nM level	0.646 nM	1450 nM	
CC[C@H](C)[C@H](NC(=O)C(C)(C)NC(=O)[C@H](CC(=O)O)NC(=O)[C@H](CC(N)=O)NC(=O)CN1CCN(CC(=O)O)CCN(CC(=O)O)CCN(CC(=O)O)CC1)C(=O)N[C@@H](CC(N)=O)C(=O)O [TM11] ({DOTA}-ND[Aib]IN-OH)		190 nM	0.0681 nM	better than nM level
CC[C@H](C)[C@H](NC(=O)[C@@H]1CCCCN1C(=O)[C@H](CC(=O)O)NC(=O)[C@H](CC(N)=O)NC(=O)CN1CCN(CC(=O)O)CCN(CC(=O)O)CCN(CC(=O)O)CC1)C(=O)NC(CC(N)=O)C(=O)O (stereo partly shown) [TM9] ({DOTA}-ND[Pip]I[ξN]-OH)	nM level	1.8 nM	5.58 nM	better than nM level

From patent publication US20260014285A1, “POLYPEPTIDE COMPOUND, AND COMPLEX AND USE THEREOF” (HANGZHOU HEALTHYTIDE BIOTECHNOLOGY CO., LTD., priority 2022, published 2026)
